Test results taken from US5849695A, “Parathyroid hormone analogues useful for treatment of osteoporosis and disorders of calcium meatabolism in mammals” (The Regents of the University of California, priority 1993, dated 1998).
Read-outs that look alike come from different tables or passages of the source.

Assays:
PTH receptor [1] = molecular target: T1, PTH receptor (Canis lupus familiaris, UniProt Q9TU31); assay type: binding, canine
T1 construct: canine renal plasma membranes; from tissue; host or cells: canine kidney (renal plasma membranes)
T1 sequence (Q9TU31 29-595): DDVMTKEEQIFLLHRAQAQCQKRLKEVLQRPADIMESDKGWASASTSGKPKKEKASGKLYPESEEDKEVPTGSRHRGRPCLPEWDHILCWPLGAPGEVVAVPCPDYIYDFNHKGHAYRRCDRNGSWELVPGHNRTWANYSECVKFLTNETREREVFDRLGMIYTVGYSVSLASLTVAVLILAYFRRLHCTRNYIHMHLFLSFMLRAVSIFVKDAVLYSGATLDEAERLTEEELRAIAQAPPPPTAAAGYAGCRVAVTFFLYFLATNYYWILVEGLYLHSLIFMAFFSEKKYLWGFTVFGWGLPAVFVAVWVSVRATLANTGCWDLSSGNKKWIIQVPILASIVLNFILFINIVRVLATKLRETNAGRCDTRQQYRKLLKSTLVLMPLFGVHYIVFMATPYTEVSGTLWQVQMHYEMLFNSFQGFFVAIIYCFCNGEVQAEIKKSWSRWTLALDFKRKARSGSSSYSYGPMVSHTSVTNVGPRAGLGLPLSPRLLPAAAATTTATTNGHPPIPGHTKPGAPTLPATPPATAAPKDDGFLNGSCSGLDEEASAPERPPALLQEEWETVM
Protocol: (§1) Receptor binding assays were carried out in canine renal plasma membranes and in UMR 106-H5 rat osteosarcoma cells as previously described in detail (Ref. 14,32), using ^125 I-labeled PTH(1-34)amide as the radioligand. Binding potency (IC50) was quantified as the concentration of unlabeled peptide required for half-maximal displacement of the radioligand. […] Adenylate cyclase activity was assessed in canine renal membranes by the conversion of [α-32p ] ATP to [^32 P] cyclic AMP, essentially as described, except for the addition of 100 micromolar GTP (Ref. 33,34). Adenylate cyclase activity in UMR 106-H5 cells was assessed essentially as described (Ref. 35). In brief, cells were incubated with [3H]adenine 1 micro Ci/ml of serum-free MEM for two hours at 37° C. to label the endogenous ATP pool. Cells were then exposed to 0.4 mM IBMX for 10 min, followed by the appropriate peptide for an additional 10 min at ambient temperature. The cells are then scraped in 20% TCA, and [3H]cyclic AMP is isolated by the column procedure of Salomon et al. (Ref. 36). Potency in the adenylate cyclase assays (Ka) is the concentration of peptide producing half-maximal enzyme activation.

PTH receptor [2] = molecular target: T2, PTH receptor (Rattus norvegicus, UniProt P25961); assay type: cell-based; settings: for BONE CELLS Rat(UMR-106) Activity (AC): Table 5A, intact cells, hPTH(1-34) = 100
T2 construct: endogenous in cells; host or cells: UMR 106-H5 rat osteosarcoma cells
T2 sequence (P25961 27-591): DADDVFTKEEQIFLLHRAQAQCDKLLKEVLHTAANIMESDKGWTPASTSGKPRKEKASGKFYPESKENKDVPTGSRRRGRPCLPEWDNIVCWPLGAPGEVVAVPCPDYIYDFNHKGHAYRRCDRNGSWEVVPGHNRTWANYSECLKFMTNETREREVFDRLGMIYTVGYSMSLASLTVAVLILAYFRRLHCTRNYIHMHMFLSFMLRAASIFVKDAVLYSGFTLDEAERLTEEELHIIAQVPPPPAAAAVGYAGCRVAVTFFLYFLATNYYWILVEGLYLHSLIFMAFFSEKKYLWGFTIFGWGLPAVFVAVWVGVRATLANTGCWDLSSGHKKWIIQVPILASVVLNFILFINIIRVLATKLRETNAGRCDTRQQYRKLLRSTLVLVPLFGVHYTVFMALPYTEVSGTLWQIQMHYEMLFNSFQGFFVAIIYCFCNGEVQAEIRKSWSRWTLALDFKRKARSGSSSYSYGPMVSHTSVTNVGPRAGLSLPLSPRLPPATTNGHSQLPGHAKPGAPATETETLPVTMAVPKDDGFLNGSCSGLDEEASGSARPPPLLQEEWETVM
Protocol: as §1, with “Assays were conducted using […] cells. These assays were performed as described in Cohen et al. (1991), J. Biological Chem., 266(3), 1997 and in the Experimental section, e.g. Example 11. Receptor” for “Receptor”

PTH receptor [3] = molecular target: T3, PTH receptor (Homo sapiens, UniProt Q03431)
T3 sequence (Q03431 27-593): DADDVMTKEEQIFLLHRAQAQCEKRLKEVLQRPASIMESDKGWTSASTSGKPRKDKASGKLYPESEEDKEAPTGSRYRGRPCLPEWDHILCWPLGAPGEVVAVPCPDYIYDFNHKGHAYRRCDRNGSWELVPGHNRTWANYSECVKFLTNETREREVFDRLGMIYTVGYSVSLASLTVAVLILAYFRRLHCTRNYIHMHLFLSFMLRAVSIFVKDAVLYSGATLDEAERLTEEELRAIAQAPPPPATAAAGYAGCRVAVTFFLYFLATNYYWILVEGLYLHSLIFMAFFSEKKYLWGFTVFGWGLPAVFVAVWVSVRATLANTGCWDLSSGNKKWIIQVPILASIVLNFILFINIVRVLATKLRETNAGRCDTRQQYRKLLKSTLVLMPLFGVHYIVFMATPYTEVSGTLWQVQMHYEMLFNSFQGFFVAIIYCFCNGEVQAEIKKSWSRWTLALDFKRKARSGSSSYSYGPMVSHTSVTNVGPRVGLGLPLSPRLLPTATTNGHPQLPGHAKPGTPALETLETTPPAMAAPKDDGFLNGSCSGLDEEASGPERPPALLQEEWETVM

PTH receptor [4] = molecular target: T3, PTH receptor; assay type: cell-based; set-up: In intact rat (UMR-106) and human (SaOS-2) bone cell lines; endogenous in cells; host or cells: SaOS-2 human bone (osteosarcoma) cells
Description: The renal membrane assay values listed reflect the effect of the polypeptide analogue with kidney tissue receptors. The UMR-106-H5 assay values reflect the effect of the peptide analogue with rat bone tissue receptors. The Sa05-2 assay values reflect the effect of the peptides for human bone tissue receptors.

PTH receptor [5] = test system: PTH receptor
PTH receptor [6] = molecular target: T2, PTH receptor; assay type: binding
Protocol: as §1

PTH receptor [7] = molecular target: T1, PTH receptor; assay type: biochemical, canine; settings: for RENAL MEMBRANES Canine Activity (AC): Table 5B, hPTH(1-34) = 100
Protocol: as §1

[8] = cited from earlier work
[9] = Table 5A, intact cells, hPTH(1-34) = 100

For `CC[C@H](C)[C@H](NC(=O)[C@H](CCC(=O)O)NC(=O)[C@H](Cc1c[nH]cn1)NC(=O)[C@@H](NC(=O)[C@@H](N)CO)C(C)C)C(=O)N[C@@H](CCC(N)=O)C(=O)N[C@@H](CC(C)C)C(=O)N[C@@H](CCSC)C(=O)N[C@@H](Cc1c[nH]cn1)C(=O)N[C@@H](CC(N)=O)C(=O)N[C@@H](CC(C)C)C(=O)NCC(=O)N[C@@H](CCCCN)C(=O)N[C@@H](Cc1c[nH]cn1)C(=O)N[C@@H](CC(C)C)C(=O)N[C@@H](CC(N)=O)C(=O)N[C@@H](CO)C(=O)N[C@@H](CCSC)C(=O)N[C@@H](CCC(=O)O)C(=O)N[C@@H](CCCNC(=N)N)C(=O)N[C@H](C(=O)N[C@@H](CCC(=O)O)C(=O)N[C@@H](Cc1c[nH]c2ccccc12)C(=O)N[C@@H](CC(C)C)C(=O)N[C@@H](CCCNC(=N)N)C(=O)N[C@@H](CCCCN)C(=O)N[C@@H](CCCCN)C(=O)N[C@@H](CC(C)C)C(=O)N[C@@H](CCC(N)=O)C(=O)N[C@@H](CC(=O)O)C(=O)N[C@H](C(=O)N[C@@H](Cc1c[nH]cn1)C(=O)N[C@@H](CC(N)=O)C(=O)N[C@@H](Cc1ccccc1)C(=O)O)C(C)C)C(C)C` [[his^3]hPTH(1-34), [his^3]HPTH(1-34)], the “RENAL MEMBRANES Canine Potency (B)” value (PTH receptor [1]) was 4%, the “BONE CELLS Rat(UMR-106) Potency (AC)” value (PTH receptor [2]) was 4% and the “BONE CELLS Rat(UMR-106) Activity (AC)” value (PTH receptor [2]) was 100%. For the same compound, the “BONE CELL MEMBRANES Human SaOS-2 Potency (AC)” value (PTH receptor [3]) was 11%, the “BONE CELL MEMBRANES Human SaOS-2 Activity (AC)” value (PTH receptor [3]; Table 5B, hPTH(1-34) = 100) was 14% and the “BONE CELLS Human(SaOS-2) Potency (AC)” value (PTH receptor [4]) was 5%. The “BONE CELLS Human(SaOS-2) Activity (AC)” value (PTH receptor [4]; [9]) was 100%, the “KIDNEY CELLS (CK) Potency (B)” value (PTH receptors) was 6% and the “potency of native [ser^3]HPTH(1-34) retained in binding to PTH receptors” value (PTH receptors) was 5-15%. For the same compound, the “KIDNEY CELLS (CK) Potency (AC)” value (PTH receptor [5]) was 13%, the “BONE CELLS Rat(UMR-106) Potency (B)” value (PTH receptor [6]) was 1% and the “RENAL MEMBRANES Canine Potency (AC)” value (PTH receptor [7]) was 1%. The “RENAL MEMBRANES Canine Activity (AC)” value (PTH receptor [7]) was 43%.
In the case of `CC[C@H](C)[C@H](NC(=O)[C@H](CCC(=O)O)NC(=O)[C@H](CO)NC(=O)[C@@H](NC(=O)[C@@H](N)CO)C(C)C)C(=O)N[C@@H](CCC(N)=O)C(=O)N[C@@H](CC(C)C)C(=O)N[C@@H](CCSC)C(=O)N[C@@H](Cc1c[nH]cn1)C(=O)N[C@@H](CC(N)=O)C(=O)N[C@@H](CC(C)C)C(=O)NCC(=O)N[C@@H](CCCCN)C(=O)N[C@@H](Cc1c[nH]cn1)C(=O)N[C@@H](CC(C)C)C(=O)N[C@@H](CC(N)=O)C(=O)N[C@@H](CO)C(=O)N[C@@H](CCSC)C(=O)N[C@@H](CCC(=O)O)C(=O)N[C@@H](CCCNC(=N)N)C(=O)N[C@H](C(=O)N[C@@H](CCC(=O)O)C(=O)N[C@@H](Cc1c[nH]c2ccccc12)C(=O)N[C@@H](CC(C)C)C(=O)N[C@@H](CCCNC(=N)N)C(=O)N[C@@H](CCCCN)C(=O)N[C@@H](CCCCN)C(=O)N[C@@H](CC(C)C)C(=O)N[C@@H](CCC(N)=O)C(=O)N[C@@H](CC(=O)O)C(=O)N[C@H](C(=O)N[C@@H](Cc1c[nH]cn1)C(=O)N[C@@H](CC(N)=O)C(=O)N[C@@H](Cc1ccccc1)C(=O)O)C(C)C)C(C)C` [hPTH (1-34), hPTH(1-34), reference compound], the “RENAL MEMBRANES Canine Potency (B)” value (PTH receptor [1]) is reported as 100%, the “BONE CELLS Rat(UMR-106) Potency (AC)” value (PTH receptor [2]) is reported as 100% and the “UMR106-H5 CELLS Rat Bone Potency (AC)” value (PTH receptor [2]) is reported as 100%. For the same compound, the “UMR106-H5 CELLS Rat Bone Activity (AC*)” value (PTH receptor [2]; Table 1(A), relative to hPTH(1-34) = 100%) was 100%, the “BONE CELLS Rat(UMR-106) Activity (AC)” value (PTH receptor [2]) was 100% and the “KIDNEY CELLS (CK) Potency (B)” value (PTH receptors; [9]) was 100%. The “KIDNEY CELLS (CK) Potency (AC)” value (PTH receptor [5]; [9]) was 100%, the “BONE CELLS Rat(UMR-106) Potency (B)” value (PTH receptor [6]) was 100% and the “UMR106-H5 CELLS Rat Bone Potency (B)” value (PTH receptor [6]) was 100%. The “RENAL MEMBRANES Canine Potency (AC)” value (PTH receptor [7]) was 100%, the “RENAL MEMBRANES Canine Activity (AC*)” value (PTH receptor [7]; Table 1(A), large doses, relative to hPTH(1-34) = 100%) was 100% and the “RENAL MEMBRANES Canine Activity (AC)” value (PTH receptor [7]) was 100%.
For [Gln^22, Lys^28, Leu^30 hPTH(1-34), the “loss of biological activity” value ([8]; Ref. 49, 50) is listed as 10-50 fold.
In the case of [SOMet^18 ]bPTH(1-84), the “activity of the native hormone retained” value ([8]; Ref. 49) is given as about 50%.
